The compounds below were run on rabbit skeletal myofibrils (fast skeletal myofibrils) (assay: Activation of fast skeletal myofibrils (PUMA assay, PK/LDH-coupled ATPase at pCa25)). Settings: AC1.4 determined according to the procedure of Example 39; reported as class symbols.
Format: biochemical
Method in brief: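 ATPase activity of Triton-washed rabbit skeletal myofibrils, roughly 90% fast fibres, tracked by NADH loss at 340 nm through a PK/LDH-coupled ADP-regenerating system. Calcium set to 25% of maximal activity (pCa25), in PIPES 12 mM pH 6.8 with 2 mM MgCl2 and 1 mM DTT; AC1.4 reported.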

| SMILES | Mean AC1.4 |
| --- | --- |
| CC(=O)c1ccc(NCC(C)(C)c2ccc(F)cc2)nn1 [1-(6-{[2-(4-fluorophenyl)-2-methylpropyl]amino}pyridazin-3-yl)ethan-1-one] | D (D=>20 uM) |
| NC(=O)c1cccc(-c2ccc(NCC3(C(=O)O)CCC3)nn2)c1 [1-({[6-(3-carbamoylphenyl)pyridazin-3-yl]amino}methyl)cyclobutane-carboxylic acid] | D (D=>20 uM) |
| CC(C)(CNc1ccc(C(=O)N2CCCCC2C(N)=O)nn1)c1ccc(F)cc1 (centres unmarked) [1-[(6-{[2-(4-fluorophenyl)-2-methylpropyl]amino}pyridazin-3-yl)carbonyl]piperidine-2-carboxamide] | D (D=>20 uM) |
| CC(C)(CNc1ccc(C(=O)N2CCCC(C(N)=O)C2)nn1)c1ccc(F)cc1 (centres unmarked) [1-[(6-{[2-(4-fluorophenyl)-2-methylpropyl]amino}pyridazin-3-yl)carbonyl]piperidine-3-carboxamide] | D (D=>20 uM) |
| CC(C)(CNc1ccc(C(=O)N2CCC(C(N)=O)CC2)nn1)c1ccc(F)cc1 [1-[(6-{[2-(4-fluorophenyl)-2-methylpropyl]amino}pyridazin-3-yl)carbonyl]piperidine-4-carboxamide] | D (D=>20 uM) |
| CC(C)(CNc1ccc(C(=O)N2CCCC2C(N)=O)nn1)c1ccc(F)cc1 (centres unmarked) [1-[(6-{[2-(4-fluorophenyl)-2-methylpropyl]amino}pyridazin-3-yl)carbonyl]pyrrolidine-2-carboxamide] | D (D=>20 uM) |
| CC(C)(CNc1ccc(C(=O)N2CCC(C(N)=O)C2)nn1)c1ccc(F)cc1 (centres unmarked) [1-[(6-{[2-(4-fluorophenyl)-2-methylpropyl]amino}pyridazin-3-yl)carbonyl]pyrrolidine-3-carboxamide] | D (D=>20 uM) |
| CC(C)(CNc1ccc(-c2ccccc2C(N)=O)nn1)c1ccc(F)cc1 [2-(6-{[2-(4-fluorophenyl)-2-methylpropyl]amino}pyridazin-3-yl)benzamide] | B (B=1-10 uM) |

Next, values leading:

| Mean AC1.4 | SMILES |
| --- | --- |
| D (D=>20 uM) | CC(C)(CNc1ccc(C(=O)N[C@H]2CCC[C@H]2C(N)=O)nn1)c1ccc(F)cc1 (stereo in doubt) [(2S,1R)-2-[(6-{[2-(4-fluorophenyl)-2-methylpropyl]amino}pyridazin-3-yl)carbonylamino]cyclopentane-carboxamide] |
| D (D=>20 uM) | N#Cc1cccc(-c2ccc(NCC3(C(=O)O)CCC3)nn2)c1 [1-({[6-(3-cyanophenyl)pyridazin-3-yl]amino}methyl)cyclobutane-carboxylic acid] |
| B (B=1-10 uM) | CC(C)(CNc1ccc(-c2ccc3[nH]nc(C(O)CO)c3c2)nn1)c1ccc(F)cc1 (centres unmarked) [1-[5-(6-{[2-(4-fluorophenyl)-2-methylpropyl]amino}pyridazin-3-yl)-1H-indazol-3-yl]ethane-1,2-diol] |
| D (D=>20 uM) | CC(C)(CNc1ccc(C(=O)N2CCC2C(N)=O)nn1)c1ccc(F)cc1 (centres unmarked) [1-[(6-{[2-(4-fluorophenyl)-2-methylpropyl]amino}pyridazin-3-yl)carbonyl]azetidine-2-carboxamide] |
| D (D=>20 uM) | CC(C)(CNc1ccc(C(=O)NC2(C(N)=O)CC2)nn1)c1ccc(F)cc1 [1-[(6-{[2-(4-fluorophenyl)-2-methylpropyl]amino}pyridazin-3-yl)carbonylamino]cyclopropane-carboxamide] |
| D (D=>20 uM) | CC(C)(CNc1ccc(C(=O)NC2(C(=O)O)CC2)nn1)c1ccc(F)cc1 [1-[(6-{[2-(4-fluorophenyl)-2-methylpropyl]amino}pyridazin-3-yl)carbonylamino]cyclopropane-carboxylic acid] |
| D (D=>20 uM) | CC(=O)N1CC(CNc2ccc(-c3ccc4[nH]ncc4c3)nn2)(c2ncccc2F)C1 [1-acetyl-3-(3-fluoro(2-pyridyl))-3-{[(6-(1H-indazol-5-yl)pyridazin-3-yl)amino]methyl}azetidine] |
| D (D=>20 uM) | CC(=O)N1CC=C(c2ccc(NCC(C)(C)c3ccc(F)cc3)nn2)CC1 [1-acetyl-4-(6-{[2-(4-fluorophenyl)-2-methylpropyl]amino}pyridazin-3-yl)-1,2,5,6-tetrahydropyridine] |

Same assay, conditions: median AC1.4 class, procedure of Example 39

| SMILES | Mean AC1.4 |
| --- | --- |
| NC(=O)c1cccc(-c2ccc(NC3(c4ccccc4F)CCC3)nn2)c1 | A (A=<1 uM) |
| NC(=O)c1ccc(F)c(-c2ccc(NC3(c4ncccc4Cl)CCC3)nn2)c1 | A (A=<1 uM) |
| NC(=O)c1cccc(-c2ccc(NC3(c4ccc(Cl)cc4)CCC3)nn2)c1 | B (B=1-10 uM) |
| N#Cc1ccc(C2(Nc3ccc(-c4cccc(C(N)=O)c4)nn3)CCC2)cc1 | D (D=>20 uM) |
| NC(=O)c1cccc(-c2ccc(NC3(c4ccc(F)cn4)CCC3)nn2)c1 | B (B=1-10 uM) |
| NC(=O)c1cccc(-c2ccc(NC3(c4ccccc4)CCC3)nn2)c1 | B (B=1-10 uM) |
| N#Cc1cc(-c2ccc(NC3(c4ccc(F)cc4)CCC3)nn2)ccn1 | B (B=1-10 uM) |
| CS(=O)(=O)Nc1cccc(-c2ccc(NC3(c4ccc(F)cc4)CCC3)nn2)c1 | A (A=<1 uM) |
| CS(=O)(=O)Nc1ccc(-c2ccc(NC3(c4ccc(F)cc4)CCC3)nn2)cc1 | B (B=1-10 uM) |
| NC(=O)C1CCCN(C(=O)c2cnc(-c3ccc(NCC4(c5ncccc5F)CCC4)nn3)s2)C1 (centres unmarked) [1-({2-[6-({[(3-fluoro-2-pyridyl)cyclobutyl]methyl}ami-no)pyridazin-3-yl]-1,3-thiazol-5-yl}carbonyl)piperidine-3-carboxamide] | C (C=10-20 uM) |
| CC(=O)c1cnc(-c2ccc(NCC3(c4ncccc4F)CCC3)nn2)s1 [1-{2-[6-({[(3-fluoro-2-pyridyl)cyclobutyl]methyl}ami-no)pyridazin-3-yl]-1,3-thiazol-5-yl}ethan-1-one] | C (C=10-20 uM) |
| CC(C)(Nc1ccc(-c2ncc(C(N)=O)s2)nn1)c1ncccc1Cl [2-(6-{[1-(3-chloro(2-pyridyl))-isopropyl]amino}pyridazin-3-yl)-1,3-thiazole-5-carboxamide] | B (B=1-10 uM) |

Continued, values first:

| Mean AC1.4 | SMILES |
| --- | --- |
| D (D=>20 uM) | CC(C)(CO)Nc1ccc(-c2cccc(C(N)=O)c2)nn1 |
| B (B=1-10 uM) | NC(=O)c1cccc(-c2ccc(NC3(c4ncccc4F)CCC3)nn2)c1 |
| B (B=1-10 uM) | NC(=O)c1cccc(-c2ccc(NC3(c4cccc(F)c4)CCC3)nn2)c1 |
| D (D=>20 uM) | COc1ccnc(C2(Nc3ccc(-c4cccc(C(N)=O)c4)nn3)CCC2)c1 |
| B (B=1-10 uM) | NC(=O)c1cc(-c2ccc(NC3(c4ccc(F)cc4)CCC3)nn2)ccn1 |
| B (B=1-10 uM) | NC(=O)c1ccc(F)c(-c2ccc(NC3(c4ncccc4F)CCC3)nn2)c1 |
| A (A=<1 uM) | NC(=O)c1ccc(F)c(-c2ccc(NC3(c4ccc(F)cc4)CCC3)nn2)c1 |
| A (A=<1 uM) | NC(=O)Nc1ccc(-c2ccc(NCC3(c4ncccc4F)CC(F)(F)C3)nn2)cc1 |
| C (C=10-20 uM) | CC(O)(c1cnc(-c2ccc(NCC3(c4ncccc4F)CCC3)nn2)s1)C(F)(F)F (centres unmarked) [1,1,1-trifluoro-2-{2-[6-({[(3-fluoro(2-pyridyl))cyclobutyl]methyl}ami-no)pyridazin-3-yl](1,3-thiazol-5-yl)}propan-2-ol] |
| B (B=1-10 uM) | CC(O)c1cnc(-c2ccc(NCC3(c4ncccc4F)CCC3)nn2)s1 (centres unmarked) [1-{2-[6-({[(3-fluoro-2-pyridyl)cyclobutyl]methyl}ami-no)pyridazin-3-yl]-1,3-thiazol-5-yl}ethan-1-ol] |
| A (A=<1 uM) | O=C(NCc1cnc(-c2ccc(NCC3(c4ncccc4F)CCC3)nn2)s1)c1ncn[nH]1 [1H-1,2,4-triazol-5-yl-N-({2-[6-({[(3-fluoro(2-pyridyl))cyclobutyl]methyl}ami-no)pyridazin-3-yl](1,3-thiazol-5-yl)}methyl)carboxamide] |
| B (B=1-10 uM) | OC(c1cnc(-c2ccc(NCC3(c4ncccc4F)CCC3)nn2)s1)C(F)(F)F (centres unmarked) [2,2,2-trifluoro-1-{2-[6-({[(3-fluoro(2-pyridyl))cyclobutyl]methyl}ami-no)pyridazin-3-yl](1,3-thiazol-5-yl)}ethan-1-ol] |
| B (B=1-10 uM) | OC(O)(c1cnc(-c2ccc(NCC3(c4ncccc4F)CCC3)nn2)s1)C(F)(F)F [2,2,2-trifluoro-1-{2-[6-({[(3-fluoro(2-pyridyl))cyclobutyl]methyl}ami-no)pyridazin-3-yl](1,3-thiazol-5-yl)}ethane-1,1-diol] |
| B (B=1-10 uM) | OC(c1cnc(-c2ccc(NCC3(c4ncccc4F)CCC3)nn2)s1)C(F)F (centres unmarked) [2,2-difluoro-1-{2-[6-({[(3-fluoro(2-pyridyl))cyclobutyl]methyl}ami-no)pyridazin-3-yl](1,3-thiazol-5-yl)}ethan-1-ol] |
| A (A=<1 uM) | CC(C)(CNc1ccc(-c2ncc(C(N)=O)s2)nn1)c1ncccc1F [2-(6-{[2-(3-fluoro(2-pyridyl))-2-methylpropyl]amino}pyridazin-3-yl)-1,3-thiazole-5-carboxamide] |

Same assay, conditions: median AC1.4 reported as class; procedure of Example 39

| SMILES | Mean AC1.4 |
| --- | --- |
| CC(C)(CNc1ccc(-c2cn3c(C(N)=O)csc3n2)nn1)c1ncccc1Cl | A (A=<1 uM) |
| CC(=O)N1CCN(Cc2cnc(-c3ccc(NCC4(c5ncccc5F)CCC4)nn3)s2)CC1 [1-acetyl-4-({2-[6-({[(3-fluoro(2-pyridyl))cyclobutyl]methyl}ami-no)pyridazin-3-yl](1,3-thiazol-5-yl)}methyl)piperazine] | D (D=>20 uM) |

More lines, now with the values ahead:

| Mean AC1.4 | SMILES |
| --- | --- |
| D (D=>20 uM) | CS(=O)(=O)N1CCN(Cc2cnc(-c3ccc(NCC4(c5ncccc5F)CCC4)nn3)s2)CC1 [1-({2-[6-({[(3-fluoro(2-pyridyl))cyclobutyl]methyl}ami-no)pyridazin-3-yl](1,3-thiazol-5-yl)}methyl)-4-(methylsulfonyl)piperazine] |
| A (A=<1 uM) | CNC(=O)Cc1csc(NC(=O)c2ccc(NCC3(c4ncccc4F)CCC3)nn2)n1 [2-(2-{[6-({[(3-fluoro(2-pyridyl))cyclobutyl]methyl}ami-no)pyridazin-3-yl]carbonylamino}(1,3-thiazol-4-yl))-N-methylacetamide] |

From patent US10076519B2 (CYTOKINETICS, INC., priority 2010, dated 2018)
